This is an account of results in US8796323B2, “Defensin-like molecules as novel antimicrobial agents” (University of Maryland, Baltimore, priority 2010, dated 2014).

Data set [1] can be described thus: Surface Plasmon Resonance binding of compounds to immobilized 3-Lipid II. The settings on record: SPR, FIG. 5. Here is the method:
The present inventors examined if the identified compounds themselves directly interact with Lipid II, which would be expected if they mimic the binding of HNP-1. Binding of compounds was tested directly using Surface Plasmon Resonance with 3-Lipid II immobilized on the chip surface (FIG. 5).

Data set [2] concerns Staphylococcus aureus ATCC 29213. Put plainly: vCC antibacterial assay, S. aureus. In kind it is cell-based. The settings on record: 30 minutes exposure, 500 to 1.95 μM. As for the experimental part:
(§1) The inventors have now tested the bacterial killing capacity of the identified compounds. The antibacterial activity was determined using the vCC assay as discussed in Ericksen, B., Wu, Z., Lu, W. and Lehrer, R. I. (2005), “Antibacterial activity and specificity of the six human {alpha}-defensins. Antimicrob Agents” Chemother 49, 269-75.). All compounds were tested initially for killing of Staphylococcus aureus ATCC 29213. All compounds were dissolved in DiMethylSulfylOxide (DMSO) and exposed to bacteria for 30 minutes in concentrations ranging from 500 to 1.95 μM. Compounds effectively killing S. aureus were subsequently tested against E. coli ATCC 25922 to assay for strain-selectivity.

The test system of data set [3] is E. coli ATCC 25922. Briefly: vCC antibacterial assay, E. coli (strain-selectivity). In kind it is cell-based. Conditions: 30 minutes exposure, 500 to 1.95 μM. Here is the method: as §1
Data set [4] relates to intestinal epithelial cell line Caco-2. Put plainly: Caco-2 cell viability, MTT assay. Type of data set: cell-based. The settings on record: Caco-2, 24 h. As for the experimental part:
Caco-2 cells were seeded at 2. 10^5 cells/ml and exposed to compounds ranging in concentration from 500 to 3.7125 μM. Cell viability was determined after 24 h by the MTT assay and is expressed as a percentage of the viability of untreated cells.
On the technique in general: Tetrazolium assays rely on reduction of a dye to a coloured formazan, in cell work by metabolically active cells.

Data set [5] can be described thus: ANTS/DPX leakage assay from large unilamellar vesicles. The settings on record: POPG LUVs, panel of six human α-defensins, FIG. 1. As for the experimental part: Large unilamellar vesicles (LUVs) with the low molecular weight fluorophore/quencher pair (ANTS/DPX) encapsulated were prepared using the standard extrusion method. Specifically, phospholipids were dissolved in chloroform at a desired molar ratio, dried as a film by solvent evaporation. After removal of residual solvent, the lipid film was hydrated in the fluorescent solution containing 5 mM HEPES, 12.5 mM ANTS, 45 mM DPX, and 20 mM NaCl, pH 7.0, freeze-thawed for 10 cycles and extruded 10 times through 0.4-μm polycarbonate membranes. LUVs were separated from unencapsulated materials by gel filtration chromatography using a Sepharose CL-4B column eluted with 5 mM HEPES, 100 mM NaCl, pH 7.4 (high-salt). For leakage assays in a low-salt buffer, purified vesicles were further diluted with 5 mM HEPES containing 10 mM NaCl, pH 7.4.
Leakage of ANTS from LUVs, monitored on a LS-55 Perkin Elmer luminescence spectrometer, was characterized by an increase in fluorescence, which was quenched by DPX when encapsulated together inside liposomes (Ellens, H., et al., 1985, “H+- and Ca2+-induced fusion and destabilization of liposomes,” Biochemistry 24:3099-3106). 270 μl ANTS/DPX-encapsulated LUVs (in either high-salt or low-salt buffers) were added to each well of a 96-well plate to a final lipid concentration of 600 μM. 30 μl H2O was added to the first well of each row as a blank, and 30 μl 2.5% (v/v) Triton X-100 to the last (twelfth) well as the control for 100% leakage. Upon addition of 30 μl of a twofold dilution series of defensin, the fluorescence signal was recorded at 515 nm with an excitation wavelength of 353 nm, 10 nm bandwidths and a 390 nm cut-off filter in the emission path. Percent leakage is expressed as: % leakage=((Ft−F0)/(F100−F0))×100 where Ft is the fluorescence determined at different time points after addition of defensin, F0 is the background fluorescence of the “blank” cells, and F100 is the fluorescence of the control cells containing 0.25% Triton X-100. Lipid II Purification
Defensins are believed to kill bacteria by permeabilizing the membrane, causing leakage of intracellular content and eventually cell lysis and death. The present inventors tested the ability of six human α-defensins to induce leakage of fluorophores encapsulated in LUVs (See FIG. 1). […] (A) At high salt concentration (5 mM HEPES, 100 mM NaCl, pH 7.4). (B) At low salt concentration (5 mM HEPES, 10 mM NaCl, pH 7.4). LUVs were 250 nm in diameter and 600 μM (phospholipids) in concentration.
(A) Effects of surface charge on HNP1-induced leakage from LUVs of four different compositions: POPC (circle, surface charge=0), POPC/POPG=3:2 (square, surface charge=−0.4), POPC/POPG=2:3 (triangle, surface charge=−0.6), and POPG (diamond, surface charge=−1). (B) LUV (POPG:DPPC 1:1) leakage induced by L-HNP1 (circles) or D-HNP1 (squares). A two-fold dilution series of HNP1 peptides from 0.19 to 100 μg/ml was incubated with 600 μM LUVs for one hour before readings were taken. Error bars indicate the standard error in triplicate experiments.

Data set [6] relates to S. aureus. Conditions: literature (Ericksen 2005; Wei 2009); cited from earlier work.

No end group written: not given here.

For “3-ethyl-5-methyl-4-phenyl-2-[3-(1,3,3-trimethyl-1,3-dihydro-2H-indol-2-ylidene)prop-1-en-1-yl]-1,3-thiazol-3-ium [Compound 7771-0701]”, in data set [1], the “binding to 3-Lipid II immobilized on the chip surface” value (shortened to “binding to 3-Lipid II immobilized”) is recorded as “bind to Lipid II”. Moreover, the “killing of S. aureus” value in data set [2] is given as “very efficient in killing of S. aureus”.

With `Oc1ccc(C(c2ccc(O)cc2)c2ccc(F)cc2)cc1` [Compound 0251-0215, 4-[(4-fluorophenyl)(4-hydroxyphenyl)methyl]phenol], in data set [1], the “binding to 3-Lipid II immobilized” value is “bind to Lipid II”. In data set [2], the “killing of S. aureus” value is “very efficient in killing of S. aureus”.

As for `OCc1ccc2c(c1)C1c3ccccc3C2c2ccccc21` [Compound 5100015, pentacyclo[6.6.6.0˜2,7˜.0˜9,14˜.0˜15,20˜]icosa-2,4,6,9,11,13,15,17,19-nonaen-4-ylmethanol], in data set [1], the “binding to 3-Lipid II immobilized” value was “bind to Lipid II”. Also, the “killing of S. aureus” value in data set [2] is on record as “very efficient in killing of S. aureus”.

Take `CC[n+]1c(/C=C/C=C2C=C(/C=C/N(C)c3ccccc3)CC(C)(C)C/2)sc2ccccc21` [Compound 5107930, 2-[3-(5,5-dimethyl-3-{2-[methyl(phenyl)amino]vinyl}-2-cyclohexen-1-ylidene)-1-propen-1-yl]-3-ethyl-1,3-benzothiazol-3-ium iodide]: the “killing of S. aureus” value in data set [2] is “Effectively kills S. aureus at low concentrations”. For the same molecule, the “bactericidal activity against E. coli” value in data set [3] was “Shows little bactericidal activity against E. coli”. In addition, in data set [4], the cytotoxicity result was “Displays relatively low cytotoxicity”.

Consider “HNP4: fourth human neutrophil α-defensin (VCSCRLVFCRRTELRVGNCLIGGVSFTYCCTRV; not fully specified; ends and bridges not checked; UniProt P12838 64-96, looked up)”, for which, in data set [5], the “membrane activity (leakage of ANTS-DPX from POPG LUVs)” value is listed as “most membrane active defensin in the panel of six”. Further, the “bactericidal activity against S. aureus / Gram-positive bacteria” value in data set [6] is listed as “ineffective against Gram-positive bacteria”.

B1: HD-5: α-defensin Human Defensin 5 (peptide, UniProt Q01523 20-94, looked up)
Defensin alpha 5: ESLQERADEATTQKQSGEDNQDLAISFAGNGLSALRTSGSQARATCYCRTGRCATRESLSGVCEISGRLYRLCCR
modifications: Defensin-5
Take B1: the “membrane activity (leakage of ANTS-DPX from POPG LUVs)” value in data set [5] is “little membrane activity even at high concentrations”. In addition, the “bactericidal activity against S. aureus / Gram-positive bacteria” value in data set [6] is reported as “potently bactericidal”.
